# Data published in patent US12414915B2, “Liquid naloxone spray” (HIKMA PHARMACEUTICALS USA INC., priority 2023, dated 2025).
# Read-outs that look alike come from different tables or passages of the source.
# Experiment: Phase I five-way crossover: intranasal and sublingual naloxone spray 8 mg and 16 mg versus 0.4 mg intramuscular, plasma concentrations
# Type: in vivo, human subjects
# Conditions: for concentration at 0.03 h / concentration at 0.07 h / concentration at 0.1 h / concentration at 0.13 h / concentration at 0.17 h / concentration at 0.5 h / concentration at 1 h / concentration at […] / Cmax / AUC: human, plasma; for concentration at 0.03 h / concentration at 0.07 h / concentration at 0.1 h / concentration at 0.13 h / concentration at 0.17 h / concentration at 0.5 h / concentration at 1 h / concentration at […]: mean ± SD; for concentration at […]: read-out: Conc. @ 0.25 h; for AUC: time-zero to 1 hour post dose
# Description: 145 subjects were randomly assigned to one of five groups including 8 milligrams sublingual dose, 16 milligrams sublingual dose, 8 milligrams intranasal dose, 16 milligrams intranasal dose and 0.4 milligram naloxone dose. Plasma concentrations were taken at pre-dose, 0.03, 0.07, 0.1, 0.13, 0.17, 0.25, 0.5, 1, 2 4, 8 and 12 hours' post-dose.
smiles,measurement,setting,value
"C=CCN1CC[C@]23c4c5ccc(O)c4O[C@H]2C(=O)CC[C@@]3(O)[C@H]1C5 [naloxone, Naloxone]","mean plasma concentration, 16 mg intranasal compared with 16 mg sublingual",2 and 4 hours post-dose,significantly lower
same,"plasma concentration, intranasal compared with sublingual administration",all time points up to 1 hour after administration,significantly greater plasma concentration
same,concentration at 0.03 h,"intramuscular, 0.4 mg IM",0.15 ± 0.29 ng/mL
same,concentration at 0.07 h,"intramuscular, 0.4 mg IM",0.36 ± 0.38 ng/mL
same,concentration at 0.1 h,"intramuscular, 0.4 mg IM",0.51 ± 0.41 ng/mL
same,concentration at 0.13 h,"intramuscular, 0.4 mg IM",0.58 ± 0.39 ng/mL
same,concentration at 0.17 h,"intramuscular, 0.4 mg IM",0.63 ± 0.36 ng/mL
same,concentration at 0.5 h,"intramuscular, 0.4 mg IM",0.62 ± 0.22 ng/mL
same,concentration at 1 h,"intramuscular, 0.4 mg IM",0.51 ± 0.16 ng/mL
same,concentration at […],"intramuscular, 0.4 mg IM",0.69 ± 0.4 ng/mL
same,concentration at 0.03 h,"other: intranasal, 8 mg IN",6.19 ± 14.5 ng/mL
same,concentration at 0.07 h,"other: intranasal, 8 mg IN",13.9 ± 19.1 ng/mL
same,concentration at 0.1 h,"other: intranasal, 8 mg IN",18.8 ± 15.6 ng/mL
same,concentration at 0.13 h,"other: intranasal, 8 mg IN",20.5 ± 13.1 ng/mL
same,concentration at 0.17 h,"other: intranasal, 8 mg IN",20 ± 10.7 ng/mL
same,concentration at 0.5 h,"other: intranasal, 8 mg IN",9.88 ± 4.42 ng/mL
same,concentration at 1 h,"other: intranasal, 8 mg IN",6.29 ± 2.7 ng/mL
same,concentration at […],"other: intranasal, 8 mg IN",16.5 ± 6.71 ng/mL
same,concentration at 0.03 h,"other: intranasal, 16 mg IN",9.29 ± 14.3 ng/mL
same,concentration at 0.07 h,"other: intranasal, 16 mg IN",29.7 ± 28 ng/mL
same,concentration at 0.1 h,"other: intranasal, 16 mg IN",46.3 ± 36.6 ng/mL
same,concentration at 0.13 h,"other: intranasal, 16 mg IN",49.3 ± 34 ng/mL
same,concentration at 0.17 h,"other: intranasal, 16 mg IN",45.8 ± 24.6 ng/mL
same,concentration at 0.5 h,"other: intranasal, 16 mg IN",22.4 ± 8.19 ng/mL
same,concentration at 1 h,"other: intranasal, 16 mg IN",14.1 ± 5.61 ng/mL
same,concentration at […],"other: intranasal, 16 mg IN",35 ± 13.2 ng/mL
same,concentration at 0.03 h,"other: sublingual, 8 mg SL",0.18 ± 0.29 ng/mL
same,concentration at 0.07 h,"other: sublingual, 8 mg SL",0.62 ± 0.96 ng/mL
same,concentration at 0.1 h,"other: sublingual, 8 mg SL",0.88 ± 0.94 ng/mL
same,concentration at 0.13 h,"other: sublingual, 8 mg SL",1.17 ± 1.13 ng/mL
same,concentration at 0.17 h,"other: sublingual, 8 mg SL",1.54 ± 1.1 ng/mL
same,concentration at 0.5 h,"other: sublingual, 8 mg SL",2.03 ± 1.28 ng/mL
same,concentration at 1 h,"other: sublingual, 8 mg SL",1.61 ± 0.85 ng/mL
same,concentration at […],"other: sublingual, 8 mg SL",1.98 ± 1.29 ng/mL
same,concentration at 0.03 h,"other: sublingual, 16 mg SL",0.52 ± 0.8 ng/mL
same,concentration at 0.07 h,"other: sublingual, 16 mg SL",1.69 ± 1.85 ng/mL
same,concentration at 0.1 h,"other: sublingual, 16 mg SL",2.31 ± 2.08 ng/mL
same,concentration at 0.13 h,"other: sublingual, 16 mg SL",3.16 ± 3.39 ng/mL
same,concentration at 0.17 h,"other: sublingual, 16 mg SL",3.63 ± 3.83 ng/mL
same,concentration at 0.5 h,"other: sublingual, 16 mg SL",3.94 ± 2.96 ng/mL
same,concentration at 1 h,"other: sublingual, 16 mg SL",2.96 ± 1.66 ng/mL
same,concentration at […],"other: sublingual, 16 mg SL",4.39 ± 4.24 ng/mL
same,Cmax,"other: intranasal, 8 mg IN",20.5 ng/mL
same,AUC,"other: intranasal, 8 mg IN",11.2 ng·h/mL
same,Cmax,"other: intranasal, 16 mg IN",49.3 ng/mL
same,AUC,"other: intranasal, 16 mg IN",24.9 ng·h/mL
same,Cmax,"other: sublingual, 8 mg SL",2.03 ng/mL
same,AUC,"other: sublingual, 8 mg SL",1.68 ng·h/mL
same,Cmax,"other: sublingual, 16 mg SL",4.39 ng/mL
same,AUC,"other: sublingual, 16 mg SL",3.42 ng·h/mL
same,Cmax,0.4 mg IM,0.69 ng/mL
same,AUC,0.4 mg IM,0.57 ng·h/mL
same,plasma concentration compared with 0.4 mg intramuscular administration,"intranasal or sublingual, 8 mg or 16 mg, all time points up to 1 hour, fasted",significantly greater plasma concentrations
